Measurements reported in paper PMC10780244, “Antileishmanial Effect of 1,5- and 1,8-Substituted Fused Naphthyridines” (Molecules, 2023).

How the values were obtained:
[1] = tested on: murine intestinal organoids; test: Drug tolerance in murine intestinal organoids (alamarBlue); assay type: cell-based, mouse; details: 50 µM, 72 h exposure
Description: Amastigotes obtained from mouse bone marrow cells were used to perform a first screening with the complete series of fused 1,5- and 1,8-naphthyridines. […] The toxicity of these selected compounds was assessed in non-infected splenic cells and the cytotoxic concentration (CC50) value obtained was used to calculate the selective index (SI). The oral tolerability of these same compounds was tested by calculating the viability of murine intestinal organoids exposed to two concentrations (50 and 25 µM).
Preparation and maintenance of murine intestinal organoids cultures were performed following the protocols published by Stemcell Technologies™ (https://www.stemcell.com/intestinal-epithelial-organoid-culture-with-intesticult-organoid-growth-medium-mouse-lp.html#protocols, accessed on 14 December 2023) with some modifications. Briefly, a section of small intestine from a Balb/c mouse was extracted and washed with ice-cold PBS. This section was cut into pieces around 2 mm each, washed 15–20 times with ice-cold PBS and incubated with Gentle Cell Dissociation Reagent (Stemcell Technologies™, Vancouver, BC, Canada) for 20 min. Then, the pieces were resuspended in ice-cold PBS with 0.1% BSA and left to settle at the bottom of the tube. The supernatant was collected and filtered through a 70 µm strainer. This process was repeated a total of four times obtaining different fractions. Cells from these fractions were centrifugated at 300× g for 5 min at 4 °C, washed with ice-cold PBS + 0.1% BSA and resuspended on 10 mL of ice-cold DMEM/F12 supplemented with glutamine and HEPES 15 mM (Gibco, Thermo Fisher Scientific, Waltham, MA, USA). After the evaluation under a microscope, the fraction with the highest crypt number but the lowest detritus presence was chosen. This fraction was centrifugated at 200× g for 5 min at 4 °C and the pellet was resuspended in a 1:1 mix of Geltrex GFR LDEV-free (Gibco, Fisher Scientific, Waltham, MA, USA) and IntestiCult™ Organoid Grow Medium Mouse (Stemcell Technologies™, Vancouver, BC, Canada). Fifty microliters of the suspension were pipetted into the middle of each well of a pre-heated 24-well plate and incubated at 37 °C for 10 min to allow polymerization of the matrix. In the end, 500 µL of IntestiCult™ Organoid Grow Medium was added to each well. The plates were incubated at 37 °C and 5% CO2, changing the culture medium every 48 h. Organoids were split 1 into 4 plates after 7 days.
Drug tolerance assays using murine intestinal organoids were performed in 384-well plates, following a protocol based on previous works and introducing several modifications. Briefly, organoids were prepared discarding the culture medium and adding 800 µL of Gentle Cell Dissociation Reagent (Stemcell Technologies™, Vancouver, BC, Canada) directly on top of matrix domes. After 1 min incubation at room temperature, the matrix was broken by pipetting, and the content of the wells was retrieved. The suspension was incubated at room temperature for 10 min on a rocking platform at 20 rpm, and centrifugated at 300× g for 5 min at 4 °C. The pellet was resuspended in 10 mL of ice-cold DMEM/F12 (Gibco, Fisher Scientific, Waltham, MA, USA) supplemented with glutamine and HEPES 15 mM and centrifugated again at 200× g for 5 min at 4 °C. Cells were resuspended in a 1:1 mix of Geltrex GFR LDEV-free and IntestiCult™ Organoid Grow Medium Mouse (Stemcell Technologies™, Vancouver, Canada). The final volume of the mix was calculated to achieve a 4-fold dilution in the final plate compared to the original plate. The mix was distributed in a 384-well plate (8 µL/well) which was incubated at 37 °C for 10 min. After that, 32 µL of IntestiCult™ Organoid Grow Medium Mouse (Stemcell Technologies™, Vancouver, Canada) were added to each well. The plate was incubated at 37 °C and 5% CO2 and after 4 days, mature organoids were exposed to drugs, alone or combined. For positive control, hydrogen peroxide at the final concentration of 0.15 % v/v was used. […]

[2] = tested on: mouse splenic macrophages; test: Cytotoxicity in uninfected murine splenic cells (alamarBlue); assay type: cell-based; details: summary in discussion
Description: Amastigotes obtained from mouse bone marrow cells were used to perform a first screening with the complete series of fused 1,5- and 1,8-naphthyridines. […] The toxicity of these selected compounds was assessed in non-infected splenic cells and the cytotoxic concentration (CC50) value obtained was used to calculate the selective index (SI). The oral tolerability of these same compounds was tested by calculating the viability of murine intestinal organoids exposed to two concentrations (50 and 25 µM). In order to assess the in vitro safety of the naphthyridines, cytotoxicity assays were carried out in ex vivo splenic explants from uninfected mice, which were prepared as previously described to obtain intramacrophagic amastigotes. Cells were seeded at a density of 1 × 10^6 cells per well in 96-well plates containing the prediluted compounds and incubated at 37 °C and 5% CO2 during 72 h. AlamarBlue assay (Invitrogen, Fisher Scientific, Waltham, MA, USA) was used to estimate cell viability following manufacturer’s recommendations. The assays were performed by triplicate. Absorbance of viable cells vs. compound concentrations were fitted by nonlinear analysis using the Sigma Plot 10.1 statistical package to calculate the cytotoxic concentration 50 (CC50) values. Selectivity index (SI) was calculated as the ratio between CC50 and the EC50 values of intramacrophagic amastigotes.

two cancer cell lines = tested on: two cancer cell lines; design: method as in PMID 31229877, PMID 32279049, PMID 33962152; details: cited from earlier work
[3] = tested on: recombinant human DNA topoisomerase IB (hTopIB); design: method as in PMID 31229877, PMID 32279049, PMID 33962152; dose or concentration left out as unconfirmed; details: cited from earlier work
[4] = tested on: leishmanial DNA topoisomerase IB (LdTopIB); test: Relaxation of supercoiled plasmid DNA assay; assay type: biochemical, Leishmania; details: 100 μM of compounds, 1 min at 37 °C, in words
Description: page 2: DNA DMSO 6b8a8b8c9b10b11a13a13b14a7c8d15b Relaxationof supercoiled plasmid DNA assay. Each reaction contains one unit of purified leishmanial DNA topisomeraseIB enzyme (LdTopIB), 100 μM ofcompounds, 0.5μg of supercoiled […], 10 mM Tris-HCl buffer pH 7.5, 5 mM MgCl 2, 0.1 mM EDTA, 15 μg/mL bovine serum albumin, 150 mM KCl. Reaction mixtures were incubated 1 min at 37 °C and stopped by the addition of 4 μL loading buffer (5% sarkosyl, 0.12% bromophenol blue, 25% glycerol). The topoisomerswere resolved in 1% agarose gels by electrophoresis in 0.1 M Tris borate EDTA buffer (pH 8.0) at 2 V/cm for 16 h and visualized with UV illumination after ethidium bromide (0.5μg/mL) staining. […]

SMILES	Intestinal Organoids 50 µM (%Viability) [1] [%]	toxicity (in words) [2]	cytotoxic effects on two cancer cell lines (concentration range) (two cancer cell lines) [µM]	inhibitory effect on DNA relaxation activity of hTopIB [3]	LdTopIB inhibitory activity [4]
COc1ccc2c(n1)[C@@H](c1ccccc1)C1CN(S(=O)(=O)c3ccc(C)cc3)c3ccccc3C1N2 (some centres unmarked) [Compound 8c]	>100				
Fc1ccc2c(c1)C1Nc3ncccc3[C@@H](c3ccccc3)C1CO2 (some centres unmarked) [Compound 10b]	90 ± 22				
O=c1oc2ccccc2c2nc3ncccc3c(-c3ccccc3)c12 [Compound 13a]		significant toxicity	1 to 15	had an inhibitory effect on DNA relaxation activity	did not show leishmanial DNA topoisomerase IB (LdTopIB) inhibitory activity
Cc1ccc(S(=O)(=O)N2CC3C(Nc4ncccc4C3c3ccccc3)c3ccccc32)cc1 (centres unmarked) [Compound 14a]		significant toxicity	1 to 15	had an inhibitory effect on DNA relaxation activity	did not show leishmanial DNA topoisomerase IB (LdTopIB) inhibitory activity
Cc1ccc(S(=O)(=O)N2Cc3c(nc4ncc(Br)cc4c3-c3ccccc3)-c3ccccc32)cc1 [Compound 15b]		significant toxicity	1 to 15	had an inhibitory effect on DNA relaxation activity	did not show leishmanial DNA topoisomerase IB (LdTopIB) inhibitory activity
